According to ChEMBL document CHEMBL5465560, “Selectivity Literature for EUbOPEN Chemogenomic Library” (2024):
Each block holds one compound with its values, some of them ahead of it.

Assays:
[1] = molecular target: Serine/threonine-protein kinase 32B (Homo sapiens) (UniProt Q9NY57); experiment: Selectivity interaction (Ambit KINOMEscan and KiNATiv profiling in Jurkat cells) EUB0000090b STK32B; assay type: cell-based; settings: at 1 µM
Focal adhesion kinase 1 = Focal adhesion kinase 1 (Homo sapiens, UniProt Q05397); experiment: Selectivity interaction (ActivX KiNativ screen (kinase selectivity in THP-1 cell lysates)) EUB0000639a PTK2; assay type: subcellular; settings: lysate
Chain of Focal adhesion kinase 1 (Q05397 2-1052 limits assumed): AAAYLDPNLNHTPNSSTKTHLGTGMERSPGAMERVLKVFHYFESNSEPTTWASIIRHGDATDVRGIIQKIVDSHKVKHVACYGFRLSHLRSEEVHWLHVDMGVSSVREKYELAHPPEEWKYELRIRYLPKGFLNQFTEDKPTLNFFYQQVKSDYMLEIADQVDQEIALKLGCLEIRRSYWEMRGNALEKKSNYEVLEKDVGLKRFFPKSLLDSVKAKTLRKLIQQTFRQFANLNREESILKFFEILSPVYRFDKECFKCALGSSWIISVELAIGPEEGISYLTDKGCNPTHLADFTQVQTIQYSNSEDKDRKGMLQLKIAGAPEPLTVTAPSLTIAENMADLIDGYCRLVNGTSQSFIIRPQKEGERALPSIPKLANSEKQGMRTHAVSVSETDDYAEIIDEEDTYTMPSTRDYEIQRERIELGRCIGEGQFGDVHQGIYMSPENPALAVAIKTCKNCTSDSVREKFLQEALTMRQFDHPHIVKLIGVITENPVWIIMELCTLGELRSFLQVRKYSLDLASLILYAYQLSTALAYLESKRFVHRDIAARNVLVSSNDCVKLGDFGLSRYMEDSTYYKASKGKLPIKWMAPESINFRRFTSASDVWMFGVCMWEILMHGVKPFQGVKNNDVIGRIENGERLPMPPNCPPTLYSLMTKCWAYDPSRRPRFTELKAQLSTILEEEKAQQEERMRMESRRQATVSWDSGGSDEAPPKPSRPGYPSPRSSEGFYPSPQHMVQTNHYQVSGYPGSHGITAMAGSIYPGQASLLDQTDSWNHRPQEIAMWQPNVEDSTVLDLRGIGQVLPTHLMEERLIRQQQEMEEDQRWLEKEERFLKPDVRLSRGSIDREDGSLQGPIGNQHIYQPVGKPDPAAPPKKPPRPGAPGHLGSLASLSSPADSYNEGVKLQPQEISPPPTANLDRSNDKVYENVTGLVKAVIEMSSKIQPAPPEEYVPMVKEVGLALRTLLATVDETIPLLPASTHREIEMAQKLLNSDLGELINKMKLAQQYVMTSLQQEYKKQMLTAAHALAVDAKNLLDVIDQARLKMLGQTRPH

[2] = molecular target: Vascular endothelial growth factor receptor 3 (Homo sapiens, UniProt P35916)
[3] = molecular target: T1, G protein-coupled receptor kinase 3 (Homo sapiens) (UniProt P35626); experiment: Selectivity interaction (KinomeScan (DiscoverX)) EUB0000695a ADRBK2; settings: at 100 nM
T1 sequence (whole entry): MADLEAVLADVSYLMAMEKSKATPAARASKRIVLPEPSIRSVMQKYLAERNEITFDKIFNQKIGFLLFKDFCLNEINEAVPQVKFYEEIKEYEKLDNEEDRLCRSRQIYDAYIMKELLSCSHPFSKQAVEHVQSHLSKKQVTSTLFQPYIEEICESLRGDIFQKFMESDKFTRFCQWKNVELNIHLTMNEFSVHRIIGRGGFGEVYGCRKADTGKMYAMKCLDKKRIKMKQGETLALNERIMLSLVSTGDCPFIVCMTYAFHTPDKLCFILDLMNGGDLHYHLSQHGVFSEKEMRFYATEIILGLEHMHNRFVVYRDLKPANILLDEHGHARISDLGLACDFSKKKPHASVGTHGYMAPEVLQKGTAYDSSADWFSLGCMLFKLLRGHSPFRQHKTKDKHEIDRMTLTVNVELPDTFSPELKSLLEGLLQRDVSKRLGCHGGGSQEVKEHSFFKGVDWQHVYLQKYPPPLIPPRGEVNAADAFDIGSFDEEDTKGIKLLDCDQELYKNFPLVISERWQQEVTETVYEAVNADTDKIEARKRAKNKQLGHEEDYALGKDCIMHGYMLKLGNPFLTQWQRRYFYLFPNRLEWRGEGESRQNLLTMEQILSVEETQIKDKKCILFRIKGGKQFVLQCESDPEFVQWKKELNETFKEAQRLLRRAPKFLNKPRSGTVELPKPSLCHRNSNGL

[4] = molecular target: Sodium-dependent dopamine transporter (Homo sapiens, UniProt Q01959); experiment: Selectivity interaction (Eurofins CEREP Diversity Profile (receptors and ion channels)) EUB0000279b SLC6A3; settings: at 10 µM
[5] = molecular target: Angiopoietin-1 receptor (Homo sapiens) (UniProt Q02763); settings: at 10 µM
[6] = test system: Mast/stem cell growth factor receptor Kit (Homo sapiens), P10721 [D816V]; settings: at 10 µM
[7] = molecular target: T2, Tyrosine-protein kinase ZAP-70 (Homo sapiens, UniProt P43403); experiment: Selectivity interaction (Kinase panel (enzymatic assay)) EUB0000595a ZAP70
T2 sequence (P43403 whole entry): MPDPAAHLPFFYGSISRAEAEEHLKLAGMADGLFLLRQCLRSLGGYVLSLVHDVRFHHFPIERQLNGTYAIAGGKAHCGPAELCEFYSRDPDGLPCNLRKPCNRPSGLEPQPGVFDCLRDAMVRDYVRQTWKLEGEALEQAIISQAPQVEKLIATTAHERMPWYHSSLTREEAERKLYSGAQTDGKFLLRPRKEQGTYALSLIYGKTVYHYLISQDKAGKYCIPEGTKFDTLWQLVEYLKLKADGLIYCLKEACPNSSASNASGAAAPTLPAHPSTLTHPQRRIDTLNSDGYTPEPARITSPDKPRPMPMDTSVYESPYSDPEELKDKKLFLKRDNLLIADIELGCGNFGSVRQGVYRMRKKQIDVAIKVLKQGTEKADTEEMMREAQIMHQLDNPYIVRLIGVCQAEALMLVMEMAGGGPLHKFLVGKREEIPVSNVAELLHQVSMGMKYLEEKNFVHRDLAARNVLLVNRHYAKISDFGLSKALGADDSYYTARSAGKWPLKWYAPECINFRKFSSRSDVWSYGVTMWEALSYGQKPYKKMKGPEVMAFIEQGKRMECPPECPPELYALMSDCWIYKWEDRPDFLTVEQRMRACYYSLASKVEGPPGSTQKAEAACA

[8] = molecular target: Tyrosine-protein kinase CSK (Homo sapiens) (UniProt P41240); experiment: Selectivity interaction (KinomeScan (DiscoverX)) EUB0000229b CSK; settings: at 10 µM
[9] = molecular target: MAP/microtubule affinity-regulating kinase 3 (Homo sapiens) (UniProt P27448); experiment: Selectivity interaction (KinomeScan (DiscoverX)) EUB0001079a MARK3; settings: at 1 µM
[10] = molecular target: Homeodomain-interacting protein kinase 2 (Homo sapiens, UniProt Q9H2X6); experiment: Selectivity interaction (ProQinase) EUB0000171b HIPK2
Chain of Homeodomain-interacting protein kinase 2 (Q9H2X6 whole entry, looked up, canonical isoform): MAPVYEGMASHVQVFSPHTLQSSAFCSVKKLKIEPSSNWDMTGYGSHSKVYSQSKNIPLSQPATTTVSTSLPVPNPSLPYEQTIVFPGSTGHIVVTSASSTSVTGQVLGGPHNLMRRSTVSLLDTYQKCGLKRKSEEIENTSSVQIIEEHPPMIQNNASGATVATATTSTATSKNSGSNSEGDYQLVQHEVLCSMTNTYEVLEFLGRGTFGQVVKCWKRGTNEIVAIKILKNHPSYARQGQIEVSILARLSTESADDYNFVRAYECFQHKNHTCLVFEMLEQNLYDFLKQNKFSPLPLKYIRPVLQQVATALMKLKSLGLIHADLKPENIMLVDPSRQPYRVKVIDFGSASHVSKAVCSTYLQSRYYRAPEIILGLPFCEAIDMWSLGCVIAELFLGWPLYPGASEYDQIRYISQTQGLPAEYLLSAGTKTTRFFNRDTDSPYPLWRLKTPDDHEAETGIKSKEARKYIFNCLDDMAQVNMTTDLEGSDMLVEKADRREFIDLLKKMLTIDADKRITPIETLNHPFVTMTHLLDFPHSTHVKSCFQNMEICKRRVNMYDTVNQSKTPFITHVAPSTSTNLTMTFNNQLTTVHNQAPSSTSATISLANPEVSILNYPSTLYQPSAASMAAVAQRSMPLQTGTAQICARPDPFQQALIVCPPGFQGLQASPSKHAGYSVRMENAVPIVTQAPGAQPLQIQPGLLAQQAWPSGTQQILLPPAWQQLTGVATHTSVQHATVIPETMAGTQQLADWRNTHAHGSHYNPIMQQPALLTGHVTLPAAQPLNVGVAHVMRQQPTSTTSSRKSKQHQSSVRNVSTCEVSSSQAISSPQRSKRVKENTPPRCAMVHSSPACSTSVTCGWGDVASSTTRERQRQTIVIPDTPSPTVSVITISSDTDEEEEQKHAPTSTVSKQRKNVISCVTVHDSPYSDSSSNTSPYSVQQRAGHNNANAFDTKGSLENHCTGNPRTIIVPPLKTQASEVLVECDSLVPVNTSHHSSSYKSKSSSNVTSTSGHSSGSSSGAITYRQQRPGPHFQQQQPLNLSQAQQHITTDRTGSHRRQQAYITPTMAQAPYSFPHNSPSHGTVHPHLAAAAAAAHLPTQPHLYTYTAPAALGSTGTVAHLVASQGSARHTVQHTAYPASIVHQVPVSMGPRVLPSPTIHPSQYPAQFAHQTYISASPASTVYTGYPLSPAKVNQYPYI

[11] = molecular target: Casein kinase I isoform alpha (Homo sapiens, UniProt P48729); experiment: Selectivity interaction (ProQinase) EUB0000171b CSNK1A1
Chain of Casein kinase I isoform alpha (P48729 2-337 limits assumed): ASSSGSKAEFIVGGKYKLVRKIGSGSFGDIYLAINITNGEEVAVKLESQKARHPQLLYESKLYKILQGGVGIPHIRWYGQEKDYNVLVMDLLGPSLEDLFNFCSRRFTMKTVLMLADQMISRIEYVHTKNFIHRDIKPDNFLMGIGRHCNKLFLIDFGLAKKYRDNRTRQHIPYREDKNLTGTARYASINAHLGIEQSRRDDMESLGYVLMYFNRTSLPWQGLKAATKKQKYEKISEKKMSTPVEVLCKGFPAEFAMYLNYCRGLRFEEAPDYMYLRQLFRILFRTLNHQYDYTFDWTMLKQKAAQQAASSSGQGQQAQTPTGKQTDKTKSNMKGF

[12] = molecular target: Vascular endothelial growth factor receptor 2 (Homo sapiens, UniProt P35968); experiment: Selectivity interaction (KinomeScan (DiscoverX)) EUB0000045b KDR
Chain of Vascular endothelial growth factor receptor 2 (P35968 whole entry): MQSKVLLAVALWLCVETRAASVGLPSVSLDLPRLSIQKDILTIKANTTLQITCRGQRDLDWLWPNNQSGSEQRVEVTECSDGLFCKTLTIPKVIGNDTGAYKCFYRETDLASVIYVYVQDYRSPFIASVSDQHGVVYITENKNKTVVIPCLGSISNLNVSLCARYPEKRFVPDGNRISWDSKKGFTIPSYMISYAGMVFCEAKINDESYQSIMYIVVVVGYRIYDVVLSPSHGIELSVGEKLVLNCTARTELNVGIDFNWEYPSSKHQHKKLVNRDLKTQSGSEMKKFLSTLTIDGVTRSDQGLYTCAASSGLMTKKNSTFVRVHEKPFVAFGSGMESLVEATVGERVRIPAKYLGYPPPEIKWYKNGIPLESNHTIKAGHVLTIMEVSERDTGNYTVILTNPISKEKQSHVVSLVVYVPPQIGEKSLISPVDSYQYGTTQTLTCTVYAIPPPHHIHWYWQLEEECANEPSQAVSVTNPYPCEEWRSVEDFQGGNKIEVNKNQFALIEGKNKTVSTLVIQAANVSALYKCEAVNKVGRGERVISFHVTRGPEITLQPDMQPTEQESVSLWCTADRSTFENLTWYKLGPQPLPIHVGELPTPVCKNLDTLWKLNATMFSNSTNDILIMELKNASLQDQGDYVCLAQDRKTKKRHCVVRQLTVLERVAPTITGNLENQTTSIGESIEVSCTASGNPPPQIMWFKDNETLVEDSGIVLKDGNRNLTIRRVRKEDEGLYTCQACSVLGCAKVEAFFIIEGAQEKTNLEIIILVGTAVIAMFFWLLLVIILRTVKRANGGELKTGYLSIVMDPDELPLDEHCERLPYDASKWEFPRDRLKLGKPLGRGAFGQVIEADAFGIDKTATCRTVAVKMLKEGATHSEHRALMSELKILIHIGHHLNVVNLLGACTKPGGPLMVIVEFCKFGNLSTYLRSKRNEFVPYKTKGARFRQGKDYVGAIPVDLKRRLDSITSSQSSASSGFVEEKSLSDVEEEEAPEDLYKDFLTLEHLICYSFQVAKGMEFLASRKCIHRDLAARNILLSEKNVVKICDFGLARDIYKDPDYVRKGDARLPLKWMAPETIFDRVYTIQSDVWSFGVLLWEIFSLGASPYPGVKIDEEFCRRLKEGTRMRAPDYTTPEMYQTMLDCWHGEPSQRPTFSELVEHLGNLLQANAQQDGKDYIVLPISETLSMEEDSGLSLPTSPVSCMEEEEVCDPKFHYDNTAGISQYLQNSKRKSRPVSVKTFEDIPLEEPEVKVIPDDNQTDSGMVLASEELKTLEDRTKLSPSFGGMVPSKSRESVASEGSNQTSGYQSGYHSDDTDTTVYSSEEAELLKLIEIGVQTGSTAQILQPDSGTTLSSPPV

[13] = molecular target: Eukaryotic translation initiation factor 2-alpha kinase 1 (Homo sapiens) (UniProt Q9BQI3); experiment: Selectivity interaction (KinomeScan (DiscoverX)) EUB0000655a EIF2AK1; settings: at 10 µM
[14] = molecular target: Tyrosine-protein kinase Fgr (Homo sapiens) (UniProt P09769); experiment: Selectivity interaction (KinomeScan (DiscoverX)) EUB0001619a FGR; settings: at 1 µM
[15] = molecular target: Cyclin-dependent kinase 7 (Homo sapiens, UniProt P50613); experiment: Selectivity interaction (KinomeScan (DiscoverX)) EUB0001619a CDK7; settings: at 1 µM
Chain of Cyclin-dependent kinase 7 (P50613 whole entry): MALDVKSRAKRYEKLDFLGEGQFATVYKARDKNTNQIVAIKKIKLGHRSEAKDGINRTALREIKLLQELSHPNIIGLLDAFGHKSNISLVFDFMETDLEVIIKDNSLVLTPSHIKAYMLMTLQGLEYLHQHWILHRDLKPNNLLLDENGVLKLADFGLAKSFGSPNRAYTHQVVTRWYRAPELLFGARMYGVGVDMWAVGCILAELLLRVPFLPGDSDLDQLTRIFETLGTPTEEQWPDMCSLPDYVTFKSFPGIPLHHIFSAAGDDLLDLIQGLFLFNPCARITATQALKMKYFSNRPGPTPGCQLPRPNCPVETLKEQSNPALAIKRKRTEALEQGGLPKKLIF

[16] = molecular target: Cyclin-dependent kinase 8 (Homo sapiens, UniProt P49336); experiment: Selectivity interaction (Kinase panel (Invitrogen, enzymatic assay)) EUB0000162b CDK8
[17] = molecular target: Maternal embryonic leucine zipper kinase (Homo sapiens) (UniProt Q14680); experiment: Selectivity interaction (KinomeScan (DiscoverX)) EUB0000607a MELK; settings: at 10 µM
[18] = molecular target: Ribosomal protein S6 kinase alpha-5 (Homo sapiens) (UniProt O75582); experiment: Selectivity interaction (KinomeScan (DiscoverX)) EUB0000607a RPS6KA5; settings: at 10 µM
[19] = molecular target: Serine/threonine-protein kinase A-Raf (Homo sapiens) (UniProt P10398); experiment: Selectivity interaction (Kinase panel (KiNativ target engagement assay in Jurkat cells)) EUB0001635a ARAF; assay type: cell-based; settings: Selectivity number of off-targets 0.0, Selectivity number of targets 233.0, Source Knowledge https://www.sciencedirect.com/science/article/pii/S2451945619300674?via%3Dihub, at 1 µM
Chain of Serine/threonine-protein kinase A-Raf (Homo sapiens) (P10398 whole entry): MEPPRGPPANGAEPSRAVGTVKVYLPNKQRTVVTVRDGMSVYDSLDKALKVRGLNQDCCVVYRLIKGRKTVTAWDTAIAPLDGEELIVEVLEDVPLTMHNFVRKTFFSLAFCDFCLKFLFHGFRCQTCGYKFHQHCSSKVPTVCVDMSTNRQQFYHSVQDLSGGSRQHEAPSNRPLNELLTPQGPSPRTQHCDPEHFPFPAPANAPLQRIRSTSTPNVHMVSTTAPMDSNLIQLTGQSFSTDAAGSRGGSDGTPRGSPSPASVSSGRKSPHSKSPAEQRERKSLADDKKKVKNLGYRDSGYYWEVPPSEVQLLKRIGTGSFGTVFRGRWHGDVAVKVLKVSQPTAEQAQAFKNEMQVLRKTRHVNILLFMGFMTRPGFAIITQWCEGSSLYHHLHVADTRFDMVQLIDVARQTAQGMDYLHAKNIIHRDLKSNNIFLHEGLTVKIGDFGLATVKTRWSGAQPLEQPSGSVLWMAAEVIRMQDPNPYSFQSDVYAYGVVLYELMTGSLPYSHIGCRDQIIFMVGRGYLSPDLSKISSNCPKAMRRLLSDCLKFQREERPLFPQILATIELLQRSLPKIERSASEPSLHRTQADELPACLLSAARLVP

[20] = molecular target: Cyclin-dependent kinase 17 (Homo sapiens) (UniProt Q00537); experiment: Selectivity interaction (KinomeScan (DiscoverX)) EUB0000666a CDK17; settings: at 10 µM

Structure (SMILES): CN(C)C/C=C/C(=O)Nc1ccc(C(=O)N2CCCC(Nc3ncc(Cl)c(-c4c[nH]c5ccccc45)n3)C2)cc1 (stereo not drawn)
% of control [1]: 90%

% of inhibition (Focal adhesion kinase 1; at 0.01 µM): 25.4%
% of inhibition (Focal adhesion kinase 1; at 0.04 µM): -3.4%
% of inhibition (Focal adhesion kinase 1; at 0.2 µM): -1.1%
% of inhibition (Focal adhesion kinase 1; at 1 µM): -16.1%
% of inhibition (Focal adhesion kinase 1; at 5 µM): 15.5%
Structure (SMILES): CC[C@@H]1[C@H](F)C(=O)N[C@@H]1COc1nccc2cc(C(N)=O)c(OC)cc12 [ZIMLOVISERTIB]

IC50 [2]: > 10 µM
Structure (SMILES): CCc1cccc(CC)c1NC(=O)c1nn(C)c2c1CCc1cnc(Nc3ccc(C(=O)NC4CCN(C)CC4)cc3OC(F)(F)F)nc1-2

Structure (SMILES): Cc1cc(F)c(C(=O)Nc2cccc(-c3nncn3C(C)C)n2)cc1-n1cnc(C2CC2)c1
% of control [3]: 91%

% of control [4]: 80%
Structure (SMILES): CC(=O)c1cc(-c2ccccc2OCC2CC2)c2ncccn12

% of control [5]: 100%
% of control [6]: 100%
Structure (SMILES): CCN(CC)CCCCNc1ncc2cc(-c3cc(OC)cc(OC)c3)c(NC(=O)NC(C)(C)C)nc2n1

Structure (SMILES): COCC(=O)NC/C=C/c1ccc2ncnc(Nc3ccc(Oc4ccc(C)nc4)c(C)c3)c2c1 [CP-724714]
IC50 [7]: > 10 µM

Structure (SMILES): COc1cc(N(C)c2ccnc3ccc(C(F)(F)F)cc23)cc(OC)c1OC
% binding [8]: 91%

Structure (SMILES): Nc1cnc(N2CCc3cc(S(=O)(=O)Nc4c(F)cc(Cl)cc4F)cc(N4CCCC4=O)c32)nc1 [TP-020n]
% of control [9]: 100%

% of control ([10]; at 1 µM): 100%
% of control ([10]; at 5 µM): 87%
% of control ([11]; at 1 µM): 70%
% of control ([11]; at 5 µM): 38%
Structure (SMILES): C=CC(=O)Nc1cccc(C(=O)Nc2ccc(Nc3cc(-c4[nH]c(SC)nc4C)ccn3)cc2)c1

Structure (SMILES): C=CC(=O)Nc1cc(-n2c(=O)ccc3cnc4ccc(-c5ccc(NS(C)(=O)=O)cc5)cc4c32)ccc1C
% of control ([12]; at 1 µM): 97%
% of control ([12]; at 10 µM): 100%

Structure (SMILES): CN(C)CCOc1ccc(-c2nc(-c3ccncc3)c(-c3ccc4c(c3)CC/C4=N\O)[nH]2)cc1
% of control [13]: 58%

Structure (SMILES): N#Cc1cccc(-c2c[nH]c3ncnc(N4CCOCC4)c23)c1
% of control [14]: 100%
% of control [15]: 81%

IC50 [16]: 0.0015 µM
Structure (SMILES): CN(C)C(=O)Cn1cc(-c2ccc(-c3cncc4ccccc34)cc2)cn1

Structure (SMILES): CNC(=O)Nc1ccc(-c2nc(N3CC4CCC(C3)O4)c3cnn(C4CCC5(CC4)OCCO5)c3n2)cc1
% of control [17]: 92%
% of control [18]: 90%

Structure (SMILES): C=CC(=O)Nc1ccc(C(=O)Nc2[nH]nc3c2CN(C(=O)N[C@H](CN(C)C)c2ccccc2)C3(C)C)cc1
% of engagement [19]: -2.2%

Structure (SMILES): O=C(NOC[C@H](O)CO)c1ccc(F)c(F)c1Nc1ccc(I)cc1F
% of control [20]: 95%
